Like-named read-outs stand apart in the source and are kept apart here.
Key:
[1] = target: full-length human PRMT6 (Flag- and His-tagged) (Homo sapiens, UniProt Q96LA8); test: PRMT6 Biochemical Assay (3H-SAM Flashplate, peptide substrate)
Source text: General Materials. S-adenosylmethionine (SAM), S-adenosylhomocysteine (SAH), bicine, Tween20, dimethylsulfoxide (DMSO), bovine skin gelatin (BSG), sodium butyrate and Tris(2-carboxyethyl)phosphine hydrochloride solution (TCEP) were purchased from Sigma-Aldrich at the highest level of purity possible. ^3H-SAM was purchase from American Radiolabeled Chemicals with a specific activity of 80 Ci/mmol. 384-well streptavidin Flashplates were purchased from PerkinElmer.
Substrates. Peptide representative of human histone H4 residues 36-50 was synthesized with an N-terminal linker-affinity tag motif and a C-terminal amide cap by 21st Century Biochemicals. The peptide was purified by high-performance liquid chromatography (HPLC) to greater than 95% purity and confirmed by liquid chromatography mass spectrometry (LC-MS). The sequence was Biot-Ahx-[…]-amide and contained a monomethylated lysine at position 44 (SEQ ID NO.:5).
Molecular Biology: Full-length human PRMT6 (NM_018137.2) transcript clone was amplified from an HEK 293 cDNA library, incorporating a flanking 5′ sequence encoding a FLAG tag ([…]) (SEQ ID NO.:6) fused directly to Ser 2 of PRMT6 and a 3′ sequence encoding a hexa His sequence (HHHHHH) (SEQ ID NO.:17) fused directly to Asp 375. The amplified gene was subcloned into pFastBacMam (Viva Biotech).
Protein Expression. Recombinant baculovirus were generated according to Bac-to-Bac kit instructions (Life Technologies). […] Infections were carried out at 37° C. for 48 hours, harvested by centrifugation, and stored at −80° C. for purification.
Protein Purification. […] Column was washed with 20 mM imidazole in the same buffer and Flag-PRMT6-His was eluted with 150 mM imidazole. Pooled fractions were dialysed against buffer N^1-A and further purified by anti-flag M2 affinity chromatography. Flag-PRMT6-His was eluted with 200 ug/ml FLAG peptide in the same buffer. Pooled fractions were dialysed in 20 mM Tris, 150 mM NaCl, 10% glycerol and 5 mM β-mercaptoethanol, pH 7.8. The purity of recovered protein was 95%.
General Procedure for PRMT6 Enzyme Assays on Peptide Substrates. The assays were all performed in a buffer consisting of 20 mM Bicine (pH=7.6), 1 mM TCEP, 0.005% BSG, and 0.002% Tween 20, prepared on the day of use. Compounds in 100% DMSO (1 ul) were spotted into a polypropylene 384-well V-bottom plates (Greiner) using a Platemate Plus outfitted with a 384-channel head (Thermo Scientific). DMSO (1 ul) was added to Columns 11, 12, 23, 24, rows A-H for the maximum signal control and 1 ul of SAH, a known product and inhibitor of PRMT6, was added to columns 11, 12, 23, 24, rows I-P for the minimum signal control. A cocktail (40 ul) containing the PRMT6 enzyme was added by Multidrop Combi (Thermo-Fisher). The compounds were allowed to incubate with PRMT6 for 30 min at room temperature, then a cocktail (10 ul) containing SAM and peptide was added to initiate the reaction (final volume=51 ul). The final concentrations of the components were as follows: PRMT6 was 1 nM, ^3H-SAM was 200 nM, non-radiolabeled SAM was 250 nM, peptide was 75 nM, SAH in the minimum signal control wells was 1 mM, and the DMSO concentration was 2%. The assays were stopped by the addition of non-radiolabeled SAM (10 ul) to a final concentration of 400 uM, which dilutes the ^3H-SAM to a level where its incorporation into the peptide substrate is no longer detectable. 50 ul of the reaction in the 384-well polypropylene plate was then transferred to a 384-well Flashplate and the biotinylated peptides were allowed to bind to the streptavidin surface for at least 1 hour before being washed once with 0.1% Tween20 in a Biotek ELx405 plate washer. The plates were then read in a PerkinElmer TopCount plate reader to measure the quantity of ^3H-labeled peptide bound to the Flashplate surface, measured as disintegrations per minute (dpm) or alternatively, referred to as counts per minute (cpm). […]

[2] = tested on: mono-methyl arginine in RKO cells; test: RKO Methylation Assay, In Cell Western (ICW) for detection of mono-methyl arginine and DNA content; format: cell-based; conditions: Homo sapiens, RKO, 72 h, RKO cells, read-out: In Cell Western EC30
Source text: RKO adherent cells were purchased from ATCC (American Type Culture Collection), Manassas, Va., USA. DMEM/Glutamax medium, penicillin-streptomycin, heat inactivated fetal bovine serum, 0.05% trypsin and D-PBS were purchased from Life Technologies, Grand Island, N.Y., USA. Odyssey blocking buffer, 800 CW goat anti-rabbit IgG (H+L) antibody, and Licor Odyssey infrared scanner were purchased from Licor Biosciences, Lincoln, Nebr., USA. Mono-methyl arginine antibody was purchased from Cell Signaling Technology, Danvers, Mass., USA. Methanol was purchased from VWR, Franklin, Mass., USA. 10% Tween 20 was purchased from KPL, Inc., Gaithersburg, Md., USA. DRAQ5 was purchased from Biostatus Limited, Leicestershire, UK.
RKO adherent cells were maintained in growth medium (DMEM/Glutamax medium supplemented with 10% v/v heat inactivated fetal bovine serum and 100 units/mL penicillin-streptomycin) and cultured at 37° C. under 5% CO2.
Cell treatment, In Cell Western (ICW) for detection of mono-methyl arginine and DNA content. […] Compound (100 nL) from a 96-well source plate was added directly to 384 well cell plate. Plates were incubated at 37° C., 5% CO2 for 72 hours. After three days of incubation, plates were brought to room temperature outside of the incubator for ten minutes and blotted on paper towels to remove cell media. 50 μL of ice cold 100% methanol was added directly to each well and incubated for 30 min at room temperature. After 30 min, plates were transferred to a Biotek EL406 plate washer and washed 2 times with 100 μL per well of wash buffer (1×PBS). Next 60 μL per well of Odyssey blocking buffer (Odyssey Buffer with 0.1% Tween 20 (v/v)) were added to each plate and incubated 1 hour at room temperature. Blocking buffer was removed and 20 μL per well of primary antibody was added (mono-methyl arginine diluted 1:200 in Odyssey buffer with 0.1% Tween 20 (v/v)) and plates were incubated overnight (16 hours) at 4° C. Plates were washed 5 times with 100 μL per well of wash buffer. […] The plates were washed 5 times with 100 μL per well wash buffer then 2 times with 100 μL per well of water. Plates were allowed to dry at room temperature then imaged on the Licor Odyssey machine which measures integrated intensity at 700 nm and 800 nm wavelengths. Both 700 and 800 channels were scanned.
Calculations: First, the ratio for each well was determined by:
Each plate included fourteen control wells of DMSO only treatment (minimum activation) as well as fourteen control wells for maximum activation treated with 20 μM of a reference compound. The average of the ratio values for each control type was calculated and used to determine the percent activation for each test well in the plate. Reference compound was serially diluted three-fold in DMSO for a total of nine test concentrations, beginning at 20 μM. Percent activation was determined and EC30 curves were generated using triplicate wells per concentration of compound.

[3] = read-out: Biochemical IC50 PRMT6
[4] = single experiment or average of multiple experiments, read-out: Biochemical IC50 PRMT6
[5] = 72 hours compound incubation, mono-methyl arginine signal normalised to DNA content (DRAQ5), percent activation vs 20 μM reference compound
[6] = 72 hours incubation, mono-methyl arginine signal normalised to DNA content, single experiment or average of multiple experiments

Chain of full-length human PRMT6 (Flag- and His-tagged) (Q96LA8 with tags, fused parts or gaps): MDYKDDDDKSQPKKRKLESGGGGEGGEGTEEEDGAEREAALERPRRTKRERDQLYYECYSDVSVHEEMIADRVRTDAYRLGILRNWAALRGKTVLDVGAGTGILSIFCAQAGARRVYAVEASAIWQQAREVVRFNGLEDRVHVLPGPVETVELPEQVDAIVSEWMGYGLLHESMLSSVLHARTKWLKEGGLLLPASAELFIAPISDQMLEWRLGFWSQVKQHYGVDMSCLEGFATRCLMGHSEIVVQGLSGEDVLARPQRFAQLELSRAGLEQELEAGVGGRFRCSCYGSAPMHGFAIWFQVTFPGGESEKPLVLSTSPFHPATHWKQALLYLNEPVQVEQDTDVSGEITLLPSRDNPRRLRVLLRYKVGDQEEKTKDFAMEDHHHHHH

Work on `CNCCN(C)Cc1c[nH]nc1C1CCC2(CC1)CC(=O)N(CCC(C)C)C2` (centres unmarked) [Compound 165] yielded an IC50 [1, 3] of 101 to 1000 nM, an IC50 [1, 4] of 120 nM and an EC30 [2, 5] of less than 3000 nM. It also gave an EC30 [2, 6] of 510 nM.
Molecule `CNCCN(C)Cc1c[nH]nc1[C@H]1CC[C@]2(CCOC2)CC1` [Compound 142] has an IC50 [1, 3] of less than 100 nM, an IC50 [1, 4] of 19.9 nM and an EC30 [2, 5] of less than 3000 nM. For the same molecule, the EC30 [2, 6] was 52 nM.
For `CNCCN(C)Cc1c[nH]nc1C1CCC2(CC1)CN(C)C(=O)N2CC(C)C` (centres unmarked) [Compound 151], the IC50 [1, 3] was less than 100 nM, the IC50 [1, 4] was 47.7 nM and the EC30 [2, 5] was less than 3000 nM. For the same molecule, the EC30 [2, 6] was 705 nM.
`CCC(=O)N(CC1CCOCC1)[C@H]1CC[C@H](c2n[nH]cc2CN(C)CCNC)CC1` [Compound 109] was tested, and the IC50 [1, 3] was 101 to 1000 nM, the IC50 [1, 4] was 124 nM and the EC30 [2, 5] was less than 3000 nM. For the same molecule, the EC30 [2, 6] was 2480 nM.
`CNCCN(C)Cc1c[nH]nc1[C@H]1CC[C@H](O)C2(CCCCC2)C1` (racemic) [Compound 184, (1S,4S)-4-[4-({methyl[2-(methylamino)ethyl]amino}methyl)-1H-pyrazol-3-yl] spiro[5.5]undecan-1-ol] was tested, and the IC50 [1, 3] was 101 to 1000 nM, the IC50 [1, 4] was 101 nM and the EC30 [2, 5] was less than 3000 nM. The EC30 [2, 6] was 458 nM.
In the case of `CNCCN(C)Cc1c[nH]nc1[C@H]1CC[C@H](OCCOc2ccc(OCCOC)cc2)CC1` [Compound 116], the IC50 ([1]; Biochemical IC50 PRMT6) is reported as less than 100 nM, the IC50 ([1]; Biochemical IC50 PRMT6, single experiment or average of multiple experiments) is reported as 18.7 nM and the EC30 [2, 5] is reported as 3010 to 12000 nM. It also gave an EC30 [2, 6] of 8900 nM.
`CNCCN(C)Cc1c[nH]nc1C1CCC(=O)N(Cc2ccccc2)C1` (centres unmarked) [Compound 115] showed an IC50 [1, 3] of less than 100 nM, an IC50 [1, 4] of 62.7 nM and an EC30 [2, 5] of less than 3000 nM. The EC30 [2, 6] was 18.9 nM.
`CNCCN(C)Cc1c[nH]nc1C1CCC(OCCOc2ccccc2)CC1` (centres unmarked) [Compound 136] showed an IC50 [1, 3] of less than 100 nM, an IC50 [1, 4] of 7.2 nM and an EC30 [2, 5] of less than 3000 nM. It also gave an EC30 [2, 6] of 35 nM.
For `CNCCN(C)Cc1c[nH]nc1C1CCC2(CC1)NC(=O)NC2=O` (centres unmarked) [Compound 175], the IC50 [1, 3] was less than 100 nM, the IC50 [1, 4] was 37.6 nM and the EC30 [2, 5] was greater than 12000 nM. The EC30 [2, 6] was greater than 20000 nM.
For `CNCCN(C)Cc1c[nH]nc1C1CCC(CCOC)(CCOC)CC1` [Compound 174], the IC50 [1, 3] was less than 100 nM, the IC50 [1, 4] was 84.4 nM and the EC30 [2, 5] was less than 3000 nM. It also gave an EC30 [2, 6] of 85 nM.
With `CNCCN(C)Cc1c[nH]nc1C1CCC2(CC1)C(=O)NC(=O)N2C` (centres unmarked) [Compound 161] the IC50 [1, 3] was less than 100 nM, the IC50 [1, 4] was 72.9 nM and the EC30 [2, 5] was 3010 to 12000 nM. It also gave an EC30 [2, 6] of 5020 nM.
Molecule `CNCCN(C)Cc1c[nH]nc1C1CCC2(CC1)OCC(C(C)C)CO2` (centres unmarked) [Compound 150] has an IC50 [1, 3] of less than 100 nM, an IC50 [1, 4] of 55.6 nM and an EC30 [2, 5] of less than 3000 nM. For the same molecule, the EC30 [2, 6] was 256 nM.
Work on `CCC(=O)N(CC1CCOCC1)[C@H]1CC[C@@H](c2n[nH]cc2CN(C)CCNC)CC1` [Compound 108] yielded an IC50 [1, 3] of 101 to 1000 nM, an IC50 [1, 4] of 326 nM and an EC30 [2, 5] of 3010 to 12000 nM. For the same molecule, the EC30 [2, 6] was 8550 nM.
For `CNCCN(C)Cc1c[nH]nc1[C@H]1CC[C@@]2(CCN(Cc3cc(F)cc(F)c3)C2=O)CC1` [Compound 126], the IC50 [1, 3] was less than 100 nM, the IC50 [1, 4] was 9.4 nM and the EC30 [2, 5] was less than 3000 nM. For the same molecule, the EC30 [2, 6] was 638 nM.
Molecule `CNCCN(C)Cc1c[nH]nc1[C@H]1CC[C@@]2(CCN(Cc3ccc(OCCOC)cc3)C2=O)CC1` [Compound 120] has an IC50 [1, 3] of less than 100 nM, an IC50 [1, 4] of 42.8 nM and an EC30 [2, 5] of less than 3000 nM. For the same molecule, the EC30 [2, 6] was 9.8 nM.
With `CNCCN(C)Cc1c[nH]nc1C1CCC2(CC1)CCN(CCC(C)C)C2=O` (centres unmarked) [Compound 163] the IC50 [1, 3] was less than 100 nM, the IC50 [1, 4] was 65.7 nM and the EC30 [2, 5] was less than 3000 nM. For the same molecule, the EC30 [2, 6] was 66 nM.
`CNCCN(C)Cc1c[nH]nc1C1CCC(=O)N(CCc2ccccc2)C1` (centres unmarked) [Compound 110] gave an IC50 [1, 3] of less than 100 nM, an IC50 [1, 4] of 29.4 nM and an EC30 [2, 5] of less than 3000 nM. It also gave an EC30 [2, 6] of 2550 nM.
For `CCN1CC2(CCC(c3n[nH]cc3CN(C)CCNC)CC2)N(C)C1=O` (centres unmarked) [Compound 154], the IC50 [1, 3] was less than 100 nM, the IC50 [1, 4] was 44.3 nM and the EC30 [2, 5] was less than 3000 nM. It also gave an EC30 [2, 6] of 1790 nM.
`CNCCN(C)Cc1c[nH]nc1[C@H]1CC[C@]2(CCN(Cc3ccc(F)cc3)C2=O)CC1` [Compound 123] showed an IC50 [1, 3] of less than 100 nM, an IC50 [1, 4] of 18 nM and an EC30 [2, 5] of less than 3000 nM. For the same molecule, the EC30 [2, 6] was 44 nM.
Molecule `CNCCN(C)Cc1c[nH]nc1[C@H]1CC[C@@]2(CCCO2)CC1` [Compound 143] has an IC50 [1, 3] of less than 100 nM, an IC50 [1, 4] of 22 nM and an EC30 [2, 5] of less than 3000 nM. It also gave an EC30 [2, 6] of 59 nM.
